{"source": "ChEMBL document CHEMBL5512612", "about": "“Novel small molecule inhibitors targeting renal cell carcinoma: Status, challenges, future directions” (Eur J Med Chem, 2024)", "key": {"[1]": {"tested_on": "A498", "experiment": "Antiproliferative activity against human A498 cells", "assay_type": "functional, cell-based"}, "[2]": {"tested_on": "786-0", "experiment": "Antiproliferative activity against human 786-0 cells", "assay_type": "functional, cell-based"}, "[3]": {"tested_on": "ACHN", "experiment": "Induction of TRAIL induced apoptosis in human ACHN cells assessed as reduction in cFLIP level", "assay_type": "functional, cell-based"}, "[4]": {"target": "Vascular endothelial growth factor receptor 2 (Homo sapiens, UniProt P35968)", "sequence (P35968 whole entry)": "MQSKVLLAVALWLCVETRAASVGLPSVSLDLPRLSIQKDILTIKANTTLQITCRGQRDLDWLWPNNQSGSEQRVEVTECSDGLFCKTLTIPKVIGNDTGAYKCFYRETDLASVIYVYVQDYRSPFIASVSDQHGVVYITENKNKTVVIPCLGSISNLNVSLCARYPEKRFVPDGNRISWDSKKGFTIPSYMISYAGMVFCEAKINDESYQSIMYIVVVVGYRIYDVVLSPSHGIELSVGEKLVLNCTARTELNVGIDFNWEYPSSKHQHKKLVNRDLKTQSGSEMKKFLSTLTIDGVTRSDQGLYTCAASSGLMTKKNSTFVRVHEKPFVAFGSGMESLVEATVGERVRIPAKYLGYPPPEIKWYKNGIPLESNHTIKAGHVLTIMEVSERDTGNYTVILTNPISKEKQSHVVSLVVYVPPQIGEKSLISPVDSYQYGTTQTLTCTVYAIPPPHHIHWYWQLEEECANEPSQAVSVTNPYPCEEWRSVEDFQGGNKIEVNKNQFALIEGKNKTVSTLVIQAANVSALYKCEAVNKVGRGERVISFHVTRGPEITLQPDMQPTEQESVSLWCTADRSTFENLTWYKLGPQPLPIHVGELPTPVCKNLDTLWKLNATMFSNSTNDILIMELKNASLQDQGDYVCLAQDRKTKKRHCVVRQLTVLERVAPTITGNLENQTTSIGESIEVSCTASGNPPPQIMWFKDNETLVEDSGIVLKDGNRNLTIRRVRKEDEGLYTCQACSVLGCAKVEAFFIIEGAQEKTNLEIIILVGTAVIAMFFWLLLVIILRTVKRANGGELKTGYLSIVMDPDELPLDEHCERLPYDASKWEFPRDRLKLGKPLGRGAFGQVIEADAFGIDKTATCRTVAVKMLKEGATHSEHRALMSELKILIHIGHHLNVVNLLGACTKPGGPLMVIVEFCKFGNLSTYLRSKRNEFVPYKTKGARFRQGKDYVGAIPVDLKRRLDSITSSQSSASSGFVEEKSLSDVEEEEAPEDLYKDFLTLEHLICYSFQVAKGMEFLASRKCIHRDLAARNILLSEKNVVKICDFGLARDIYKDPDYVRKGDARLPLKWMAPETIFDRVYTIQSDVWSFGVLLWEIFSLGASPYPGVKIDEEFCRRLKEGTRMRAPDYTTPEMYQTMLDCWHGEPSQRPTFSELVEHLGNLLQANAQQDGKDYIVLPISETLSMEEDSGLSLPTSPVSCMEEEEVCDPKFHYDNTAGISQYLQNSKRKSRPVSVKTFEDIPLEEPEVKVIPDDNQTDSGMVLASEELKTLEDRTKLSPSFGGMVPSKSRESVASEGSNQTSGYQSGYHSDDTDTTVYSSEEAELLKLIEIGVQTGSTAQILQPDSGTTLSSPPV", "experiment": "Inhibition of VEGFR2 (unknown origin) by Kinase-Glo max reagent based assay"}, "[5]": {"tested_on": "A498", "experiment": "Cytotoxicity against human A498 cells incubated for 48 hrs by MTT assay", "assay_type": "functional, cell-based", "conditions": "A498, 48 h"}, "[6]": {"tested_on": "CAKI-1", "experiment": "Cytotoxicity against human CAKI-1 cells incubated for 48 hrs by MTT assay", "assay_type": "functional, cell-based", "conditions": "CAKI-1, 48 h"}}}
{"smiles": "O=C(Nc1ccc([N+](=O)[O-])cc1O)Nc1ccccc1Br", "values": [{"measurement": "IC50", "setting": "[1]", "value": 70000, "unit": "nM"}, {"measurement": "IC50", "setting": "[2]", "value": 100000, "unit": "nM"}]}
{"smiles": "CC(=O)OC[C@]12CC[C@H]3[C@@H](C[C@H]4O[C@]45CC=CC(=O)[C@]35C)[C@]1(O)CC[C@@]2(O)[C@@](C)(O)[C@H]1CC(C)=C(C)C(=O)O1", "values": [{"measurement": "IC50", "setting": "[3]", "value": 117, "unit": "nM"}]}
{"smiles": "Cc1ccc(/C=N/n2c(-c3cc4ccccc4[nH]3)n[nH]c2=S)cc1", "values": [{"measurement": "IC50", "setting": "[4]", "value": 34, "unit": "nM"}]}
{"smiles": "O=C(Nc1cccc(Cl)c1)Nc1nc2ccc([N+](=O)[O-])cc2s1", "values": [{"measurement": "IC50", "setting": "[1]", "value": 2500, "unit": "nM"}, {"measurement": "IC50", "setting": "[2]", "value": 2000, "unit": "nM"}]}
{"smiles": "O=C(Nc1ccccc1)Nc1nc2ccccc2o1", "values": [{"measurement": "IC50", "setting": "[1]", "value": "> 25000", "unit": "nM"}, {"measurement": "IC50", "setting": "[2]", "value": "> 25000", "unit": "nM"}]}
{"smiles": "COc1ccc(/C=N/n2c(-c3cc4ccccc4[nH]3)n[nH]c2=S)cc1", "values": [{"measurement": "IC50", "setting": "[4]", "value": 64, "unit": "nM"}]}
{"smiles": "CC(=O)/C(=N\\Nc1ccccc1)Sc1nnc(-c2cc3ccccc3[nH]2)n1/N=C/c1ccc(C)cc1", "values": [{"measurement": "IC50", "setting": "[5]", "value": 2050, "unit": "nM"}, {"measurement": "IC50", "setting": "[6]", "value": 3230, "unit": "nM"}, {"measurement": "IC50", "setting": "[4]", "value": 75, "unit": "nM"}]}
{"smiles": "CCOC(=O)/C(=N\\Nc1ccccc1)Sc1nnc(-c2cc3ccccc3[nH]2)n1/N=C/c1ccc(OC)cc1", "values": [{"measurement": "IC50", "setting": "[5]", "value": 640, "unit": "nM"}, {"measurement": "IC50", "setting": "[6]", "value": 8460, "unit": "nM"}, {"measurement": "IC50", "setting": "[4]", "value": 77, "unit": "nM"}]}
{"smiles": "O=C(Nc1ccc(Cl)cc1)Nc1nc2ccccc2[nH]1", "values": [{"measurement": "IC50", "setting": "[1]", "value": 9000, "unit": "nM"}, {"measurement": "IC50", "setting": "[2]", "value": 20000, "unit": "nM"}]}
{"smiles": "CCN(CC)CCNC(=O)c1c(C)[nH]c(/C=C2\\C(=O)Nc3ccc(F)cc32)c1C", "note": "[SUNITINIB]", "values": [{"measurement": "IC50", "setting": "[5]", "value": 1250, "unit": "nM"}]}
{"smiles": "CC1=C(C)C(=O)O[C@@H]([C@](C)(O)[C@]2(O)CC[C@@]3(O)[C@@H]4C[C@H]5O[C@]56CC=CC(=O)[C@]6(C)[C@H]4CC[C@]23C)C1", "note": "[WITHANOLIDE E]", "values": [{"measurement": "IC50", "setting": "[3]", "value": 1400, "unit": "nM"}]}
